Results from the NIST ThermoML archive (doi:10.1016/j.jct.2005.06.015).
± gives the expanded uncertainty stated by the source.

Tests used:
[1] = xn = mol fraction of the nth substance listed; conditions: 101 kPa, Liquid
[2] = refractive index (Na D-line) (dimensionless); xn = mol fraction of the nth substance listed; conditions: 101 kPa, Liquid, Standard Abbe refractometry
[3] = 101 kPa, Liquid
[4] = refractive index (Na D-line) (dimensionless); conditions: 101.33 kPa, Liquid, Standard Abbe refractometry

## ClC(Cl)C(Cl)Cl [1,1,2,2-tetrachloroethane] + CCCCCCO
[1]; 293.15 K, x1 = 0.1003
  mass density: 886.07 ± 0.54 kg/m3
[1]; 293.15 K, x1 = 0.2011
  mass density: 955.51 ± 0.54 kg/m3
[1]; 293.15 K, x1 = 0.3006
  mass density: 1025.9 ± 0.59 kg/m3
[1]; 293.15 K, x1 = 0.4004
  mass density: 1098.46 ± 0.69 kg/m3
[1]; 293.15 K, x1 = 0.5
  mass density: 1173.27 ± 0.81 kg/m3
[1]; 293.15 K, x1 = 0.6009
  mass density: 1251.57 ± 0.88 kg/m3
[1]; 293.15 K, x1 = 0.7002
  mass density: 1331.64 ± 0.96 kg/m3
[1]; 293.15 K, x1 = 0.8004
  mass density: 1415.64 ± 1.1 kg/m3
[1]; 293.15 K, x1 = 0.9011
  mass density: 1503.8 ± 1.2 kg/m3
[1]; 293.15 K, x1 = 1
  mass density: 1594.27 ± 1.3 kg/m3
[1]; 303.15 K, x1 = 0.1003
  mass density: 877.89 ± 0.55 kg/m3
[1]; 303.15 K, x1 = 0.2011
  mass density: 946.24 ± 0.54 kg/m3
[1]; 303.15 K, x1 = 0.3006
  mass density: 1015.59 ± 0.58 kg/m3
[1]; 303.15 K, x1 = 0.4004
  mass density: 1087.1 ± 0.67 kg/m3
[1]; 303.15 K, x1 = 0.5
  mass density: 1160.79 ± 0.79 kg/m3
[1]; 303.15 K, x1 = 0.6009
  mass density: 1237.85 ± 0.86 kg/m3
[1]; 303.15 K, x1 = 0.7002
  mass density: 1316.58 ± 0.94 kg/m3
[1]; 303.15 K, x1 = 0.8004
  mass density: 1399.12 ± 1 kg/m3
[1]; 303.15 K, x1 = 0.9011
  mass density: 1485.78 ± 1.2 kg/m3
[1]; 303.15 K, x1 = 1
  mass density: 1574.85 ± 1.3 kg/m3
[2]; 293.15 K, x1 = 0.1003
  refractive index: 1.4247 ± 0.00037
[2]; 293.15 K, x1 = 0.2011
  refractive index: 1.43135 ± 0.00037
[2]; 293.15 K, x1 = 0.3006
  refractive index: 1.438 ± 0.00037
[2]; 293.15 K, x1 = 0.4004
  refractive index: 1.44486 ± 0.00037
[2]; 293.15 K, x1 = 0.5
  refractive index: 1.45201 ± 0.00037
[2]; 293.15 K, x1 = 0.6009
  refractive index: 1.45957 ± 0.00037
[2]; 293.15 K, x1 = 0.7002
  refractive index: 1.46735 ± 0.00037
[2]; 293.15 K, x1 = 0.8004
  refractive index: 1.47556 ± 0.00037
[2]; 293.15 K, x1 = 0.9011
  refractive index: 1.48444 ± 0.00037
[2]; 293.15 K, x1 = 1
  refractive index: 1.49387 ± 0.00037
[2]; 303.15 K, x1 = 0.1003
  refractive index: 1.42076 ± 0.00037
[2]; 303.15 K, x1 = 0.2011
  refractive index: 1.42723 ± 0.00037
[2]; 303.15 K, x1 = 0.3006
  refractive index: 1.43378 ± 0.00037
[2]; 303.15 K, x1 = 0.4004
  refractive index: 1.4405 ± 0.00037
[2]; 303.15 K, x1 = 0.5
  refractive index: 1.4475 ± 0.00037
[2]; 303.15 K, x1 = 0.6009
  refractive index: 1.45495 ± 0.00037
[2]; 303.15 K, x1 = 0.7002
  refractive index: 1.46264 ± 0.00037
[2]; 303.15 K, x1 = 0.8004
  refractive index: 1.47082 ± 0.00037
[2]; 303.15 K, x1 = 0.9011
  refractive index: 1.4796 ± 0.00037
[2]; 303.15 K, x1 = 1
  refractive index: 1.48887 ± 0.00037

## ClC(Cl)C(Cl)Cl [1,1,2,2-tetrachloroethane] + CCCCCO
[1]; 293.15 K, x1 = 0.1015
  mass density: 892.95 ± 0.54 kg/m3
[1]; 293.15 K, x1 = 0.2006
  mass density: 969.17 ± 0.54 kg/m3
[1]; 293.15 K, x1 = 0.3019
  mass density: 1046.97 ± 0.61 kg/m3
[1]; 293.15 K, x1 = 0.4001
  mass density: 1122.53 ± 0.72 kg/m3
[1]; 293.15 K, x1 = 0.5005
  mass density: 1199.96 ± 0.84 kg/m3
[1]; 293.15 K, x1 = 0.5995
  mass density: 1276.74 ± 0.91 kg/m3
[1]; 293.15 K, x1 = 0.7005
  mass density: 1355.55 ± 0.99 kg/m3
[1]; 293.15 K, x1 = 0.8008
  mass density: 1434.56 ± 1.1 kg/m3
[1]; 293.15 K, x1 = 0.9001
  mass density: 1513.69 ± 1.2 kg/m3
[1]; 293.15 K, x1 = 1
  mass density: 1594.27 ± 1.3 kg/m3
[1]; 303.15 K, x1 = 0.1015
  mass density: 884.5 ± 0.55 kg/m3
[1]; 303.15 K, x1 = 0.2006
  mass density: 959.53 ± 0.54 kg/m3
[1]; 303.15 K, x1 = 0.3019
  mass density: 1036.17 ± 0.6 kg/m3
[1]; 303.15 K, x1 = 0.4001
  mass density: 1110.64 ± 0.7 kg/m3
[1]; 303.15 K, x1 = 0.5005
  mass density: 1186.94 ± 0.82 kg/m3
[1]; 303.15 K, x1 = 0.5995
  mass density: 1262.57 ± 0.89 kg/m3
[1]; 303.15 K, x1 = 0.7005
  mass density: 1340.1 ± 0.97 kg/m3
[1]; 303.15 K, x1 = 0.8008
  mass density: 1417.76 ± 1.1 kg/m3
[1]; 303.15 K, x1 = 0.9001
  mass density: 1495.54 ± 1.2 kg/m3
[1]; 303.15 K, x1 = 1
  mass density: 1574.85 ± 1.3 kg/m3
[2]; 293.15 K, x1 = 0.1015
  refractive index: 1.41801 ± 0.00037
[2]; 293.15 K, x1 = 0.2006
  refractive index: 1.42587 ± 0.00037
[2]; 293.15 K, x1 = 0.3019
  refractive index: 1.43392 ± 0.00037
[2]; 293.15 K, x1 = 0.4001
  refractive index: 1.44184 ± 0.00037
[2]; 293.15 K, x1 = 0.5005
  refractive index: 1.45 ± 0.00037
[2]; 293.15 K, x1 = 0.5995
  refractive index: 1.45825 ± 0.00037
[2]; 293.15 K, x1 = 0.7005
  refractive index: 1.46691 ± 0.00037
[2]; 293.15 K, x1 = 0.8008
  refractive index: 1.4757 ± 0.00037
[2]; 293.15 K, x1 = 0.9001
  refractive index: 1.48463 ± 0.00037
[2]; 293.15 K, x1 = 1
  refractive index: 1.49387 ± 0.00037
[2]; 303.15 K, x1 = 0.1015
  refractive index: 1.41395 ± 0.00037
[2]; 303.15 K, x1 = 0.2006
  refractive index: 1.42166 ± 0.00037
[2]; 303.15 K, x1 = 0.3019
  refractive index: 1.42959 ± 0.00037
[2]; 303.15 K, x1 = 0.4001
  refractive index: 1.43735 ± 0.00037
[2]; 303.15 K, x1 = 0.5005
  refractive index: 1.44547 ± 0.00037
[2]; 303.15 K, x1 = 0.5995
  refractive index: 1.45363 ± 0.00037
[2]; 303.15 K, x1 = 0.7005
  refractive index: 1.46218 ± 0.00037
[2]; 303.15 K, x1 = 0.8008
  refractive index: 1.47093 ± 0.00037
[2]; 303.15 K, x1 = 0.9001
  refractive index: 1.47979 ± 0.00037
[2]; 303.15 K, x1 = 1
  refractive index: 1.48887 ± 0.00037

## CCCCCCCCCCO [decan-1-ol]
[3]; 293.15 K
  mass density: 829.84 ± 0.57 kg/m3
[3]; 303.15 K
  mass density: 822.83 ± 0.58 kg/m3
[4]; 293.15 K
  refractive index: 1.43694 ± 0.00037
[4]; 303.15 K
  refractive index: 1.43364 ± 0.00037

## CCCCCCCCCCO [decan-1-ol] + ClC(Cl)C(Cl)Cl
[1]; 293.15 K, x2 = 0
  mass density: 829.84 ± 0.57 kg/m3
[1]; 303.15 K, x2 = 0
  mass density: 822.83 ± 0.58 kg/m3
[2]; 293.15 K, x2 = 0
  refractive index: 1.43694 ± 0.00037
[2]; 303.15 K, x2 = 0
  refractive index: 1.43364 ± 0.00037

## CCCCCCCO [heptan-1-ol]
[3]; 293.15 K
  mass density: 822.14 ± 0.58 kg/m3
[3]; 303.15 K
  mass density: 815.41 ± 0.58 kg/m3
[4]; 293.15 K
  refractive index: 1.42397 ± 0.00037
[4]; 303.15 K
  refractive index: 1.42047 ± 0.00037

## CCCCCCCO [heptan-1-ol] + ClC(Cl)C(Cl)Cl
[1]; 293.15 K, x2 = 0
  mass density: 822.14 ± 0.58 kg/m3
[1]; 303.15 K, x2 = 0
  mass density: 815.41 ± 0.58 kg/m3
[2]; 293.15 K, x2 = 0
  refractive index: 1.42397 ± 0.00037
[2]; 303.15 K, x2 = 0
  refractive index: 1.42047 ± 0.00037

## CCCCCCO [hexan-1-ol]
[3]; 293.15 K
  mass density: 818.72 ± 0.58 kg/m3
[3]; 303.15 K
  mass density: 811.73 ± 0.59 kg/m3
[4]; 293.15 K
  refractive index: 1.41807 ± 0.00037
[4]; 303.15 K
  refractive index: 1.41423 ± 0.00037

## CCCCCCO [hexan-1-ol] + ClC(Cl)C(Cl)Cl
[1]; 293.15 K, x2 = 0
  mass density: 818.72 ± 0.58 kg/m3
[1]; 303.15 K, x2 = 0
  mass density: 811.73 ± 0.59 kg/m3
[2]; 293.15 K, x2 = 0
  refractive index: 1.41807 ± 0.00037
[2]; 303.15 K, x2 = 0
  refractive index: 1.41423 ± 0.00037

## CCCCCCCCO [octan-1-ol]
[3]; 293.15 K
  mass density: 825 ± 0.58 kg/m3
[3]; 303.15 K
  mass density: 818.09 ± 0.58 kg/m3
[4]; 293.15 K
  refractive index: 1.42941 ± 0.00037
[4]; 303.15 K
  refractive index: 1.42563 ± 0.00037

## CCCCCCCCO [octan-1-ol] + ClC(Cl)C(Cl)Cl
[1]; 293.15 K, x2 = 0
  mass density: 825 ± 0.58 kg/m3
[1]; 303.15 K, x2 = 0
  mass density: 818.09 ± 0.58 kg/m3
[2]; 293.15 K, x2 = 0
  refractive index: 1.42941 ± 0.00037
[2]; 303.15 K, x2 = 0
  refractive index: 1.42563 ± 0.00037

## CCCCCO [pentan-1-ol]
[3]; 293.15 K
  mass density: 814.72 ± 0.58 kg/m3
[3]; 303.15 K
  mass density: 807.6 ± 0.59 kg/m3
[4]; 293.15 K
  refractive index: 1.40976 ± 0.00037
[4]; 303.15 K
  refractive index: 1.40592 ± 0.00037

## CCCCCO [pentan-1-ol] + ClC(Cl)C(Cl)Cl
[1]; 293.15 K, x2 = 0
  mass density: 814.72 ± 0.58 kg/m3
[1]; 303.15 K, x2 = 0
  mass density: 807.6 ± 0.59 kg/m3
[2]; 293.15 K, x2 = 0
  refractive index: 1.40976 ± 0.00037
[2]; 303.15 K, x2 = 0
  refractive index: 1.40592 ± 0.00037
